These are literature values, as cited in patent US20240280563A1, “SYSTEMS AND METHODS FOR ION CHANNEL KINETICS ANALYSIS IN CLUSTERS OF ION CHANNELS” (Ohio State Innovation Foundation, priority 2023, published 2024).

The subject of the data set is NaVs. The note with it: disruption of cooperativity with difopein; this and previous studies (Clatot et al. 2017; Zheng and Deschênes 2023).

On to difopein, for which the “effect on whole cell sodium current density” value was “does not change significantly”.
